Test results reported in patent US11725011B2, “Bicyclic urea kinase inhibitors and uses thereof” (The Broad Institute, Inc., priority 2016, dated 2023).

Columns and labels:
Settings in all cases: 1 uM
[1] = target: ABL1 (Q252H)-phosphorylated (Homo sapiens (Human), UniProt P00519, Q252H); assay: KINOMEscan; format: binding
[2] = target: S6K1 (Homo sapiens (Human), UniProt P23443); assay: KINOMEscan; format: binding
[3] = target: CDC2L1 (Homo sapiens (Human), UniProt P21127); assay: KINOMEscan; format: binding
[4] = target: RPS6KA4 (Kin.Dom.1-N-terminal) (Homo sapiens (Human), UniProt O75676); assay: KINOMEscan; format: binding
[5] = target: MLK1 (Homo sapiens (Human), UniProt P80192); assay: KINOMEscan; format: binding
[6] = target: RSK4 (Kin.Dom.2-C-terminal) (Homo sapiens (Human), UniProt Q9UK32); assay: KINOMEscan; format: binding
[7] = target: DMPK2 (Homo sapiens (Human), UniProt Q6DT37); assay: KINOMEscan; format: binding
[8] = target: CSF1R (Homo sapiens (Human), UniProt P07333); assay: KINOMEscan; format: binding
[9] = target: ITK (Homo sapiens (Human), UniProt Q08881); assay: KINOMEscan; format: binding
ITK, sequence (Q08881 whole entry): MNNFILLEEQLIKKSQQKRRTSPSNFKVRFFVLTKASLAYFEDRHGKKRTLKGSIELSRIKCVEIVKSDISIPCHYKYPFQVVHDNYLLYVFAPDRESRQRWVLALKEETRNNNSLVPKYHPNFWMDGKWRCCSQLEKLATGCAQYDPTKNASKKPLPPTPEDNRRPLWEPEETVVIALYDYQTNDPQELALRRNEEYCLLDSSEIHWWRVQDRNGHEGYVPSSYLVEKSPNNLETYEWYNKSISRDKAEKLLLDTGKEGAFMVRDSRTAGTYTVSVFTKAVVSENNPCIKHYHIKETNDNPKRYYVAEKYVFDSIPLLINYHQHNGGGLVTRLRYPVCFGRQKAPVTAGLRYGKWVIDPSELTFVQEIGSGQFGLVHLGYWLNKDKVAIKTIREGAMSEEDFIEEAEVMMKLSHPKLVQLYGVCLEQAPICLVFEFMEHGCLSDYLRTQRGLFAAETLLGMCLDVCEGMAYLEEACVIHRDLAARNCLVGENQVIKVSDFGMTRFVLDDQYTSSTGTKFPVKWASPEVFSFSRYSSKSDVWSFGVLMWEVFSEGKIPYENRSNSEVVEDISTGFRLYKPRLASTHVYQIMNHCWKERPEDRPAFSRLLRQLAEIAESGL

[10] = target: PHKG1 (Homo sapiens (Human), UniProt Q16816); assay: KINOMEscan; format: binding
PHKG1, sequence (Q16816 whole entry): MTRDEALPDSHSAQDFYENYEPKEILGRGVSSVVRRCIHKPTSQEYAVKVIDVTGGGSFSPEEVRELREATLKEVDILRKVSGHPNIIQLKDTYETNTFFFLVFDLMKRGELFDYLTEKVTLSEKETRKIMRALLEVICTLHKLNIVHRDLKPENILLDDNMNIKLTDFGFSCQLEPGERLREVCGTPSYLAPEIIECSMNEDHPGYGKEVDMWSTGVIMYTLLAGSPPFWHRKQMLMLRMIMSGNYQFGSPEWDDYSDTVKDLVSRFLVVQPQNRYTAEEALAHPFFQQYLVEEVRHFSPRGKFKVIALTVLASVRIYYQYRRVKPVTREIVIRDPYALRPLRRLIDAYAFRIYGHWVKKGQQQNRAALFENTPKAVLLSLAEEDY

[11] = target: PFPK5 (P. falciparum) (Plasmodium falciparum (isolate 3D7), UniProt P61075); assay: KINOMEscan; format: binding
[12] = target: ASK1 (Homo sapiens (Human), UniProt Q99683); assay: KINOMEscan; format: binding
[13] = target: FLT1 (Homo sapiens (Human), UniProt P17948); assay: KINOMEscan; format: binding
[14] = target: ABL1 (F317L)-phosphorylated (Homo sapiens (Human), UniProt P00519, F317L); assay: KINOMEscan; format: binding
[15] = target: CDC2L5 (Homo sapiens (Human), UniProt Q14004)
[16] = target: RSK3 (Kin.Dom.1-N-terminal) (Homo sapiens (Human), UniProt Q15349); assay: KINOMEscan; format: binding
RSK3 (Kin.Dom.1-N-terminal), sequence (Q15349 59-318): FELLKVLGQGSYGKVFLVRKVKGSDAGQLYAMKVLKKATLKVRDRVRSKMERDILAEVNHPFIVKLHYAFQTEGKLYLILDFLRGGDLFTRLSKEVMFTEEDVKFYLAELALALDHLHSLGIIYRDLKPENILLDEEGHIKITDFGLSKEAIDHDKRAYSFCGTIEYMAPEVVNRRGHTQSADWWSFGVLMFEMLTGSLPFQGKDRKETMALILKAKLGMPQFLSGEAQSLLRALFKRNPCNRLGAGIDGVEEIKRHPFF

[17] = target: TYK2 (JH2domain-pseudokinase) (Homo sapiens (Human), UniProt P29597); assay: KINOMEscan; format: binding
TYK2 (JH2domain-pseudokinase), sequence (P29597 589-875): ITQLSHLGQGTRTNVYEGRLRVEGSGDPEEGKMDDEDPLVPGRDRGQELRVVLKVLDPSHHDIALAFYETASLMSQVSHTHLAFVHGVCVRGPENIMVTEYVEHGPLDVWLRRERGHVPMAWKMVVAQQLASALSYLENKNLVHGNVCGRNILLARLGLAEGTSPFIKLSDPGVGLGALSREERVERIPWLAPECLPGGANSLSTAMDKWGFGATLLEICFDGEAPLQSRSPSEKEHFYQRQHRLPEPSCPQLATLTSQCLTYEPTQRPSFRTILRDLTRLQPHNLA

[18] = target: FGFR1 (Homo sapiens (Human), UniProt P11362); assay: KINOMEscan; format: binding
[19] = target: TAK1 (Homo sapiens (Human), UniProt O43318); assay: KINOMEscan; format: binding
[20] = target: BIKE (Homo sapiens (Human), UniProt Q9NSY1); assay: KINOMEscan; format: binding
BIKE, sequence (Q9NSY1 whole entry): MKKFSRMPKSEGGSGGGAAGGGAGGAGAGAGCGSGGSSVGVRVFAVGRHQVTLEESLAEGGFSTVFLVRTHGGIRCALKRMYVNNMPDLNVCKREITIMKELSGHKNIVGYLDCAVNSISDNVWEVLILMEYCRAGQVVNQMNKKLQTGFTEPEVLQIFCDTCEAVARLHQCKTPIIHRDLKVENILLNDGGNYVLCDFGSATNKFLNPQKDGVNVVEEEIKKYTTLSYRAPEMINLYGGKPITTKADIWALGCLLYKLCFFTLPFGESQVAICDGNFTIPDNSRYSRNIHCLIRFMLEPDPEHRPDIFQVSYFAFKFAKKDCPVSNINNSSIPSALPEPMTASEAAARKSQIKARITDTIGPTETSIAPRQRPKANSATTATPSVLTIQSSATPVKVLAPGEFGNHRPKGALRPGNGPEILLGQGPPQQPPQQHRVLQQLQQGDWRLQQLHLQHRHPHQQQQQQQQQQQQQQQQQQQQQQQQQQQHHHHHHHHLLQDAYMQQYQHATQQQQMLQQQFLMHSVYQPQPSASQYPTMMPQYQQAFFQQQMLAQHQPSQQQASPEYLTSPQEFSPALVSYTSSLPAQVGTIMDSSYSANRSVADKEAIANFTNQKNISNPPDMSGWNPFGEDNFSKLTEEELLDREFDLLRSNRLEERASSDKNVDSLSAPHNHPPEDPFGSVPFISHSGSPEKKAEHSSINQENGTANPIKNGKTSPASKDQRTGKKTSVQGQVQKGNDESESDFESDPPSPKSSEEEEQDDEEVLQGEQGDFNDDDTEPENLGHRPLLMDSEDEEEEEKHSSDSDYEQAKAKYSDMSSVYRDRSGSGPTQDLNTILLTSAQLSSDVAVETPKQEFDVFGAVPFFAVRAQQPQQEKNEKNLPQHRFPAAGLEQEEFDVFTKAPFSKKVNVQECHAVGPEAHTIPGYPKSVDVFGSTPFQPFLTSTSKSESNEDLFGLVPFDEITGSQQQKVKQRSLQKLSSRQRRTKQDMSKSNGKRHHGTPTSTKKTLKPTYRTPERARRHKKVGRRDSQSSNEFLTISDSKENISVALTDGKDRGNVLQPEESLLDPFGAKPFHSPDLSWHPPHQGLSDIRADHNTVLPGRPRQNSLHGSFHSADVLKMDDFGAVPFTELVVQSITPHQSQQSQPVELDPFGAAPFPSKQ

[21] = target: LZK (Homo sapiens (Human), UniProt O43283); assay: KINOMEscan; format: binding
[22] = target: AMPK-alpha2 (Homo sapiens (Human), UniProt P54646); assay: KINOMEscan; format: binding
AMPK-alpha2, sequence (P54646 whole entry): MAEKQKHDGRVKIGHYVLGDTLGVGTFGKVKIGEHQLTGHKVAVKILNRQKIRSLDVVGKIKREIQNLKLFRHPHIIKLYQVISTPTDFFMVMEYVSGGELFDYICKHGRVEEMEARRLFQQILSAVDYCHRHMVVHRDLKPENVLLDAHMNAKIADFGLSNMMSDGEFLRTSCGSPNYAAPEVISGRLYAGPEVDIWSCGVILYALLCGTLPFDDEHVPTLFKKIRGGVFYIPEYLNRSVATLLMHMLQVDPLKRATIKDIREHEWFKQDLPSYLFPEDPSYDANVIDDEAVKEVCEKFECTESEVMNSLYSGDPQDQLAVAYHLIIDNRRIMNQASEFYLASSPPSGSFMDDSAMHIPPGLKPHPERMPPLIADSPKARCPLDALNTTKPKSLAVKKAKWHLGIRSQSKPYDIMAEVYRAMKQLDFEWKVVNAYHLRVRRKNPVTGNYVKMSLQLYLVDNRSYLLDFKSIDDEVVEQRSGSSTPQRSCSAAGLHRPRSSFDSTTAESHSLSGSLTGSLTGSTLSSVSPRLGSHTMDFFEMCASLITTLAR

[23] = target: IGF1R (Homo sapiens (Human), UniProt P08069); assay: KINOMEscan; format: binding
[24] = target: ABL1 (T315I)-nonphosphorylated (Homo sapiens (Human), UniProt P00519, T315I); assay: KINOMEscan; format: binding
[25] = target: MRCKB (Homo sapiens (Human), UniProt Q9Y5S2); assay: KINOMEscan; format: binding
[26] = target: TIE1 (Homo sapiens (Human), UniProt P35590); assay: KINOMEscan; format: binding
[27] = target: RET (V804M) (Homo sapiens (Human), UniProt P07949, V804M); assay: KINOMEscan; format: binding
[28] = target: PAK2 (Homo sapiens (Human), UniProt Q13177); assay: KINOMEscan; format: binding
[29] = target: SGK2 (Homo sapiens (Human), UniProt Q9HBY8); assay: KINOMEscan; format: binding
SGK2, sequence (Q9HBY8 whole entry): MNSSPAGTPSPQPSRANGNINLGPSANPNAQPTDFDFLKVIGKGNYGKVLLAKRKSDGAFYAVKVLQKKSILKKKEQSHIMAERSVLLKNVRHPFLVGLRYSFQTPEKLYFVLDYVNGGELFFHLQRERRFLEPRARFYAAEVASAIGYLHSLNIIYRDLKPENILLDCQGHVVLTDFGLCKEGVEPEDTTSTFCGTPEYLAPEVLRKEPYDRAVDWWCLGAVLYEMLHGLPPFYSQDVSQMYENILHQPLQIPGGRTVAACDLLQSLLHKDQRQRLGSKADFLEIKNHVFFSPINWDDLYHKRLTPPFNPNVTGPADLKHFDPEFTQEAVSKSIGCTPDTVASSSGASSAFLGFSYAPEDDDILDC

[30] = target: MST3 (Homo sapiens (Human), UniProt Q9Y6E0); assay: KINOMEscan; format: binding
[31] = target: TYRO3 (Homo sapiens (Human), UniProt Q06418); assay: KINOMEscan; format: binding
TYRO3, sequence (Q06418 41-890): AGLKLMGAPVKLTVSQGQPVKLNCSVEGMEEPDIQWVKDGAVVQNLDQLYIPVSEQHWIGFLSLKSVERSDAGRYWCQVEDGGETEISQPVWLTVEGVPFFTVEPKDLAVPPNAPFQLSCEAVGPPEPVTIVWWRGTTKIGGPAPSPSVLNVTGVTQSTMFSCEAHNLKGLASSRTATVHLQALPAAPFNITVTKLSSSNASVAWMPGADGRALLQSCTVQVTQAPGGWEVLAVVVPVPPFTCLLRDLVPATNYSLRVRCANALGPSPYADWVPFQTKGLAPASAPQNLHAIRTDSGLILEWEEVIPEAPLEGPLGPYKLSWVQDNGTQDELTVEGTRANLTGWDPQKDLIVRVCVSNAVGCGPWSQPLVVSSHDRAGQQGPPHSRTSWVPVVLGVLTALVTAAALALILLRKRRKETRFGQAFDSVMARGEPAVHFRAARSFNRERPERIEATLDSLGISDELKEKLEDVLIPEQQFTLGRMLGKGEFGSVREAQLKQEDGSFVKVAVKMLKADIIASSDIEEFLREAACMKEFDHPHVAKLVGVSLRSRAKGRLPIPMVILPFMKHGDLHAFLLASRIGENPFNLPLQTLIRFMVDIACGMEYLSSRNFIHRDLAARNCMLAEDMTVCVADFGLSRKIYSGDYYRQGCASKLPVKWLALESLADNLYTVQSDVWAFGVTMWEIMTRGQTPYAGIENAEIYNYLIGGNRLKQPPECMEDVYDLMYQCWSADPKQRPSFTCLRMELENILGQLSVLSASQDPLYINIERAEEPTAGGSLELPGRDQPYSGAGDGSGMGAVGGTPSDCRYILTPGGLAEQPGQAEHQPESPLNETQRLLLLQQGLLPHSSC

[32] = target: YES (Homo sapiens (Human), UniProt P07947); assay: KINOMEscan; format: binding
[33] = target: BUB1 (Homo sapiens (Human), UniProt O43683); assay: KINOMEscan; format: binding
[34] = tested on: FLT3 (ITD); assay: KINOMEscan; format: binding
[35] = target: PCTK3 (Homo sapiens (Human), UniProt Q07002); assay: KINOMEscan; format: binding
[36] = target: TGFBR2 (Homo sapiens (Human), UniProt P37173); assay: KINOMEscan; format: binding
[37] = target: EGFR (Homo sapiens (Human), UniProt P00533); assay: KINOMEscan; format: binding
[38] = target: NEK9 (Homo sapiens (Human), UniProt Q8TD19); assay: KINOMEscan; format: binding
[39] = target: KIT (Homo sapiens (Human), UniProt P10721); assay: KINOMEscan; format: binding
[40] = target: PRKCQ (Homo sapiens (Human), UniProt Q04759); assay: KINOMEscan; format: binding

S6K1, sequence (P23443 whole entry): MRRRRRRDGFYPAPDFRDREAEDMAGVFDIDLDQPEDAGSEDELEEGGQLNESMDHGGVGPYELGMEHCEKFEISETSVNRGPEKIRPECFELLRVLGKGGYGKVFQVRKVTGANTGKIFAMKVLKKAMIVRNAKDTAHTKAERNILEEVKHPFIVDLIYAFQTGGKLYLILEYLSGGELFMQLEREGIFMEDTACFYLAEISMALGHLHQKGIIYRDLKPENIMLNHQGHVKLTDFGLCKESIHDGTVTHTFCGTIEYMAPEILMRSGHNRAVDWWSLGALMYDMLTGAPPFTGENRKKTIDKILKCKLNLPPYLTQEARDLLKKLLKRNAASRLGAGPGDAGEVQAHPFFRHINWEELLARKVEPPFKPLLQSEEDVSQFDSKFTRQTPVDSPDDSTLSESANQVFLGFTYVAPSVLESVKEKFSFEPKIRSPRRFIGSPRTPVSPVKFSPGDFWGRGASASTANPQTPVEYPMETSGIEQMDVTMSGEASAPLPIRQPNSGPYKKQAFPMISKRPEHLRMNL

COc1ccc(N2C(=O)N(c3c(C)cccc3C)Cc3cnc(Nc4ccc(N5CCN(C)CC5)cc4)nc32)c(OC)c1 [HG-11-136-01]
KINOMEscan ABL1 (Q252H)-phosphorylated [1]: 0.25 | KINOMEscan S6K1 [2]: 72 | KINOMEscan CDC2L1 [3]: 79 | KINOMEscan RPS6KA4 (Kin.Dom.1-N-terminal) [4]: 79 | KINOMEscan MLK1 [5]: 6 | KINOMEscan RSK4 (Kin.Dom.2-C-terminal) [6]: 4 | KINOMEscan DMPK2 [7]: 1.6 | KINOMEscan CSF1R [8]: 0.35 | KINOMEscan ITK [9]: 66 | KINOMEscan PHKG1 [10]: 100 | KINOMEscan PFPK5 (P. falciparum) [11]: 96 | KINOMEscan ASK1 [12]: 100 | KINOMEscan FLT1 [13]: 5.2 | KINOMEscan ABL1 (F317L)-phosphorylated [14]: 1.8 | KINOMEscan CDC2L5 [15]: 65 | KINOMEscan RSK3 (Kin.Dom.1-N-terminal) [16]: 40 | KINOMEscan TYK2 (JH2domain-pseudokinase) [17]: 1.2 | KINOMEscan FGFR1 [18]: 0.15 | KINOMEscan TAK1 [19]: 11 | KINOMEscan BIKE [20]: 8.8 | KINOMEscan LZK [21]: 4 | KINOMEscan AMPK-alpha2 [22]: 30 | KINOMEscan IGF1R [23]: 100 | KINOMEscan ABL1 (T315I)-nonphosphorylated [24]: 0 | KINOMEscan MRCKB [25]: 38 | KINOMEscan TIE1 [26]: 30 | KINOMEscan RET (V804M) [27]: 7.6 | KINOMEscan PAK2 [28]: 61 | KINOMEscan SGK2 [29]: 76 | KINOMEscan MST3 [30]: 4.6 | KINOMEscan TYRO3 [31]: 1.6 | KINOMEscan YES [32]: 0.05 | KINOMEscan BUB1 [33]: 100 | KINOMEscan FLT3 (ITD) [34]: 57 | KINOMEscan PCTK3 [35]: 100 | KINOMEscan TGFBR2 [36]: 38 | KINOMEscan EGFR [37]: 0.7 | KINOMEscan NEK9 [38]: 81 | KINOMEscan KIT [39]: 0 | KINOMEscan PRKCQ [40]: 80
